Assay results from patent publication US12384776B2, “Compounds and uses thereof” (Foghorn Therapeutics Inc., priority 2019, dated 2025).

Molecular target: Nanoluciferase-BRD9 fusion protein (3×FLAG-NLuc-BRD9) in SYO-1 cells (Homo sapiens (Human), UniProt Q9H8M2)
Assay: SYO1 BRD9 NanoLuc degradation assay
Assay type: cell-based
Description: Procedure: A stable SYO-1 cell line expressing 3×FLAG-NLuc-BRD9 was generated. On day 0 cells were seeded in 30 μL media into each well of 384-well cell culture plates. The seeding density was 8000 cells/well. On day 1, cells were treated with 30 nL DMSO or 30 nL of 3-fold serially DMSO-diluted compounds (10 points in duplicates with 1 μM as final top dose). Subsequently plates were incubated for 6 hours in a standard tissue culture incubator and equilibrated at room temperature for 15 minutes. Nanoluciferase activity was measured by adding 15 μL of freshly prepared Nano-Glo Luciferase Assay Reagent (Promega N1130), shaking the plates for 10 minutes and reading the bioluminescence using an EnVision reader.
Results: The Inhibition % was calculated using the following formula: % Inhibition=100×(LumHC−LumSample)/(LumHC−LumLC). DMSO treated cells are employed as High Control (HC) and 1 μM of a known BRD9 degrader standard treated cells are employed as Low Control (LC).

[1] = SYO-1 cells expressing 3×FLAG-NLuc-BRD9, 6 hours incubation, top dose 1 μM

Nanoluciferase-BRD9 fusion protein (3×FLAG-NLuc-BRD9) in SYO-1 cells, sequence (Q9H8M2 whole entry, the tested form may be a part): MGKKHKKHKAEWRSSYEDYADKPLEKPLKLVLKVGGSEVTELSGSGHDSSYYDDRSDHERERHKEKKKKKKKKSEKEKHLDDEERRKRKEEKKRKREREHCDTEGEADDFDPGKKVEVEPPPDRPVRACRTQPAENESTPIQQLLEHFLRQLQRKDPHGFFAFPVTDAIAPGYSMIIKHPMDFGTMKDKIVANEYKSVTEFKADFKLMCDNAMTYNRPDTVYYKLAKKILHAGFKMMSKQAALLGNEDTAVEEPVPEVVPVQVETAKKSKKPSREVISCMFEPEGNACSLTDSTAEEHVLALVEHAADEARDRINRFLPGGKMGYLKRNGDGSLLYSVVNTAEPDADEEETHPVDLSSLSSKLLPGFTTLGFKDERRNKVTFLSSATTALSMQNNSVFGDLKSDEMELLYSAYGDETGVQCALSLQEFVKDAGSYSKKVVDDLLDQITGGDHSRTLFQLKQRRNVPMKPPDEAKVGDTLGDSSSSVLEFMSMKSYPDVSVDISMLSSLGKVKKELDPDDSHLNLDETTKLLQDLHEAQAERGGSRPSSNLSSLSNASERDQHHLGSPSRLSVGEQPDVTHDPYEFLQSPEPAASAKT

IC50 (SYO-1 cells, 6 hours, Table 6A) [nM]	SMILES	also measured
> 10	CNC(=O)N1CCc2c(-c3cc(OC)c(CN4CCN(C(=O)CCCOc5cccc6c5C(=O)N(C5CCC(=O)NC5=O)C6=O)CC4)c(OC)c3)cn(C)c(=O)c2C1 (stereo not drawn) [Compound D1, 5-(4-[[4-(4-[[2-(2,6-dioxopiperidin-3-yl)-1,3-dioxoisoindol-4-yl]oxy]butanoyl)piperazin-1-yl]methyl]-3,5-dimethoxyphenyl)-N,7-dimethyl-8-oxo-3,4-dihydro-1H-2,7-naphthyridine-2-carboxamide]	–
> 10	CNC(=O)N1CCc2c(-c3cc(OC)c(CN4CCN(C(=O)COc5cccc6c5C(=O)N(C5CCC(=O)NC5=O)C6=O)CC4)c(OC)c3)cn(C)c(=O)c2C1 (stereo not drawn) [Compound D2, 5-(4-[[4-(2-[[2-(2,6-dioxopiperidin-3-yl)-1,3-dioxoisoindol-4-yl]oxy]acetyl)piperazin-1-yl]methyl]-3,5-dimethoxyphenyl)-N,7-dimethyl-8-oxo-3,4-dihydro-1H-2,7-naphthyridine-2-carboxamide]	–
> 100	CNC(=O)N1CCc2c(-c3cc(OC)c(CN4CCC5(CC4)CN(C(=O)CCCOc4cccc6c4C(=O)N(C4CCC(=O)NC4=O)C6=O)CCO5)c(OC)c3)cn(C)c(=O)c2C1 (stereo not drawn) [Compound D3, 5-(4-[[4-(4-[[2-(2,6-dioxopiperidin-3-yl)-1,3-dioxoisoindol-4-yl]oxy]butanoyl)-1-oxa-4,9-diazaspiro[5.5]undecan-9-yl]methyl]-3,5-dimethoxyphenyl)-N,7-dimethyl-8-oxo-3,4-dihydro-1H-2,7-naphthyridine-2-carboxamide]	–

The next lines start with the molecule.

SMILES	IC50 (SYO-1 cells, 6 hours, Table 6A) [nM]	also measured
CNC(=O)N1CCc2c(-c3cc(OC)c(CN4CC5(CC(N)C5)C4)c(OC)c3)cn(C)c(=O)c2C1 [Compound B22]	–	IC50 [1]: ≥ 1000 nM
CNC(=O)N1CCc2c(-c3cc(OC)c(CN4CCN(C5CNC5)CC4)c(OC)c3)cn(C)c(=O)c2C1 [Compound B23]	–	IC50 [1]: ≥ 1000 nM
CNC(=O)N1CCc2c(-c3cc(OC)c(CN4CCC5(CC4)CN(C(=O)CCCCOc4cccc6c4C(=O)N(C4CCC(=O)NC4=O)C6=O)CCO5)c(OC)c3)cn(C)c(=O)c2C1 (stereo not drawn) [Compound D4, 5-(4-[[4-(5-[[2-(2,6-dioxopiperidin-3-yl)-1,3-dioxoisoindol-4-yl]oxy]pentanoyl)-1-oxa-4,9-diazaspiro[5.5]undecan-9-yl]methyl]-3,5-dimethoxyphenyl)-N,7-dimethyl-8-oxo-3,4-dihydro-1H-2,7-naphthyridine-2-carboxamide formic acid]	> 10	–
COc1cc(-c2cn(C)c(=O)c3c2CCN(C(=O)NCCOCCOCCNc2cccc4c2CN(C2CCC(=O)NC2=O)C4=O)C3)cc(OC)c1CN(C)C (stereo not drawn) [Compound D5, 5-[4-[(dimethylamino)methyl]-3,5-dimethoxyphenyl]-N-[2-[2-(2-[[2-(2,6-dioxopiperidin-3-yl)-1-oxo-3H-isoindol-4-yl]amino]ethoxy)ethoxy]ethyl]-7-methyl-8-oxo-3,4-dihydro-1H-2,7-naphthyridine-2-carboxamide formic acid]	> 1000	–
COc1cc(-c2cn(C)c(=O)c3c2CCN(C(=O)NCCN(C)CCNc2cccc4c2C(=O)N(C2CCC(=O)NC2=O)C4=O)C3)cc(OC)c1CN(C)C (stereo not drawn) [Compound D6, 5-[4-[(dimethylamino)methyl]-3,5-dimethoxyphenyl]-N-[2-[(2-[[2-(2,6-dioxopiperidin-3-yl)-1,3-dioxoisoindol-4-yl]amino]ethyl)(methyl)amino]ethyl]-7-methyl-8-oxo-3,4-dihydro-1H-2,7-naphthyridine-2-carboxamide]	> 100	–
COc1cc(-c2cn(C)c(=O)c3c2CCN(C(=O)NCCS(=O)(=O)CCNc2cccc4c2C(=O)N(C2CCC(=O)NC2=O)C4=O)C3)cc(OC)c1CN(C)C (stereo not drawn) [Compound D7, 5-[4-[(dimethylamino)methyl]-3,5-dimethoxyphenyl]-N-[2-(2-[[2-(2,6-dioxopiperidin-3-yl)-1,3-dioxoisoindol-4-yl]amino]ethanesulfonyl)ethyl]-7-methyl-8-oxo-3,4-dihydro-1H-2,7-naphthyridine-2-carboxamide formic acid]	–	DC50 (SYO-1 cells, 6 hours, Table 6A, read-out: SYO1 BRD9-NanoLuc degradation IC50): > 10 nM
